These results are taken from paper PMC5971468, “Small molecules that inhibit the late stage of Munc13-4–dependent secretory granule exocytosis in mast cells” (The Journal of Biological Chemistry, 2018).

In assay [1] the target is T1, Munc13-4 (Homo sapiens, UniProt Q70J99).
T1 construct: gene UNC13D; His6-tagged human Munc13-4 protein produced in insect Sf9 cells
Description: SNARE-dependent liposome lipid-mixing FRET assay with purified Munc13-4 + Ca2+. Format: biochemical.

The target in assay [2] is T1, Munc13-4. Kind of assay: SNARE-dependent liposome lipid-mixing FRET assay with purified Munc13-4 + Ca2+; liposome flotation binding assay. The class given is biochemical.

T1 sequence (Q70J99 whole entry): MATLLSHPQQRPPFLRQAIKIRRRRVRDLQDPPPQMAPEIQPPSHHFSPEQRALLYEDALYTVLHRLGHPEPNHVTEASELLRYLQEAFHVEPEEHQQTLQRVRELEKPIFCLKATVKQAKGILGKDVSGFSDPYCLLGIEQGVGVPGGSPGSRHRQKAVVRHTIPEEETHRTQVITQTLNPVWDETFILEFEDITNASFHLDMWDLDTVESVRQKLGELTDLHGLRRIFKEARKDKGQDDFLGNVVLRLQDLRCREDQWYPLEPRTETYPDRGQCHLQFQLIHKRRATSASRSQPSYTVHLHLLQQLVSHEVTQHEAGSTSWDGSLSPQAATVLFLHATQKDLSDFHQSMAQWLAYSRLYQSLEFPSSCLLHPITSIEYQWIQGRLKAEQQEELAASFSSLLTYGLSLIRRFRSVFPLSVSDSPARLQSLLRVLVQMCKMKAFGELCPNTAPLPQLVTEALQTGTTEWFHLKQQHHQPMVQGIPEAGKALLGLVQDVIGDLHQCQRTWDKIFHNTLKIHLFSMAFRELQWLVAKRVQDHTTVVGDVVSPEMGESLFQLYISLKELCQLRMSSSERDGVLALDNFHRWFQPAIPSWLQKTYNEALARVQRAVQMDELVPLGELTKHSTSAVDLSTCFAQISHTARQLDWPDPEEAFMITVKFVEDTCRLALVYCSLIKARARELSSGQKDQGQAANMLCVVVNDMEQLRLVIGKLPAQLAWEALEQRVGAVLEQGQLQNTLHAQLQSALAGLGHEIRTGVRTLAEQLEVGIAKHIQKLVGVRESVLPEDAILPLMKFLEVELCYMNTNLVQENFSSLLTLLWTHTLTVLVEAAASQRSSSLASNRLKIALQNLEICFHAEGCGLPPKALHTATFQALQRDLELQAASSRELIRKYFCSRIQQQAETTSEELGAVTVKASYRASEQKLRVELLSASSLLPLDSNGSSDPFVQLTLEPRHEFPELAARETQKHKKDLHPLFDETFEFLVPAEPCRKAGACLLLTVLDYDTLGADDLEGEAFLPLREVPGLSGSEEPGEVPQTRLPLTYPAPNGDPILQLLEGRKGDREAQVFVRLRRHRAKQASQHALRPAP
T1 sequence (P32851 whole entry partner): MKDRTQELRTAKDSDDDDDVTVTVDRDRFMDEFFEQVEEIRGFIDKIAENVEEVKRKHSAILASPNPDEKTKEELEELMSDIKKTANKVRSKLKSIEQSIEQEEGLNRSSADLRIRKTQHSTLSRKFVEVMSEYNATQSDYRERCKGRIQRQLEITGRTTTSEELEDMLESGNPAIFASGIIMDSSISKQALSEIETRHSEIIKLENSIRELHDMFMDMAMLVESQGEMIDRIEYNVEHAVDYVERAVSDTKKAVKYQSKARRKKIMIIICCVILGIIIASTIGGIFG
T1 sequence (P60879 whole entry partner): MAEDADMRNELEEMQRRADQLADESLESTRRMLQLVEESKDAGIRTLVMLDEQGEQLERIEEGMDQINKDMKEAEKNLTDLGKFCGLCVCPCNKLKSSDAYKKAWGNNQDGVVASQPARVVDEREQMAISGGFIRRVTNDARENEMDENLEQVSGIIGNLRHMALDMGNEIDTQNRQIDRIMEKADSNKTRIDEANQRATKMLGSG
T1 sequence (P63044 2-116 partner): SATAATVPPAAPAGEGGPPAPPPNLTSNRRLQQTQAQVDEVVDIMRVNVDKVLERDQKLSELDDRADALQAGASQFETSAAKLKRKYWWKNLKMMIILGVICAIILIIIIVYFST

Usually IC50 stands for the concentration at which inhibition is half-maximal. For the molecule `COc1ccc2sc(N(CCCN(C)C)C(=O)c3ccc(S(=O)(=O)N4CCCc5ccccc54)cc3)nc2c1` [bexin-3], in assay [1], the IC50 was ~5 µM.
With `CCn1nc(C(=O)N(CCCN(C)C)c2nc3c(C)ccc(Cl)c3s2)cc1C` [bexin-1], in assay [2], the IC50 is ~5 µM.
